The record followed here is US9827229B2, “Small molecule securinine and norsecurinine analogs and their use in cancers, inflammatory diseases and infections” (INVENIO THERAPEUTICS INC., priority 2013, dated 2017).

The subject of data set [1] is HL60 cells. Nature of the data set: Growth of HL60 cells (IC50). The class given is cell-based, human. The conditions noted are these: HL-60 cells, growth; no unit in head or cell (other cells of the column print uM); read-out: HL-60, IC50. As to the method: The analogs were then tested and evaluated on the ability to affect differentiation and growth of HL60 cells.

In data set [2] the test system is MOL3. Nature of the data set: Growth inhibition of AML cell line MOL3. The class given is cell-based, human. An excerpt: (§1) The analogs were then further tested for inhibiting growth against various cancer cell lines: AML (Mol3, OCI), Colon cancer (HCT116) and Ovary cancer (SKOV3). IC50 are documented in Table 2.
Data set [3] deals with OCI. Nature of the data set: Growth inhibition of AML cell line OCI. The class given is cell-based, human.
Text: as §1

Data set [4] relates to HCT116 P53+/+. The experiment in a line: Growth inhibition of colon cancer HCT116 P53+/+. It counts as cell-based.
Text: as §1

Data set [5] has as its system HCT116 P53−/−. The experiment in a line: Growth inhibition of colon cancer HCT116 P53−/−. The class given is cell-based.
Text: as §1

Data set [6] has as its system SKOV3 P53+/+. Nature of the data set: Growth inhibition of ovary cancer SKOV3 P53+/+. It counts as cell-based.
Text: as §1

The subject of data set [7] is SKOV3 P53−/−. The experiment in a line: Growth inhibition of ovary cancer SKOV3 P53−/−. The class given is cell-based.
Text: as §1

Data set [8] concerns mice. The experiment in a line: Seizures in mice. It counts as in vivo. Particulars: due to GABA receptor binding. An excerpt: The present invention provides for methods of treating a condition as described herein with less adverse additional effects. As is known in the art, securinine antagonizes the GABAA receptor.
The mark [9] stands for this setting: Homo sapiens, HCT-116, colon cancer HCT116 P53+/+.
[10] abbreviates: Homo sapiens, HCT-116, colon cancer HCT116 P53−/−.
Where [11] appears, read: Homo sapiens, SK-OV-3, ovary cancer SKOV3 P53+/+.
Where [12] appears, read: Homo sapiens, SK-OV-3, ovary cancer SKOV3 P53−/−.

The structures appear in SMILES notation. Like-named read-outs stand apart in the source and are kept apart here.

As a reminder, the IC50 is the midpoint of a concentration-inhibition curve.

With `O=C1C=C2C(C#Cc3ccsc3)=C[C@@H]3C[C@@]2(O1)[C@H]1CCCCN31` [INVS-MG-136-III], the IC50 in data set [1] is below 0.07 µM; in data set [2], 100 nM; in data set [3], 115 nM; in data set [4] (colon cancer HCT116 P53+/+) it was 1800 nM; in data set [5] (colon cancer HCT116 P53−/−), 2200 nM; in data set [6] (ovary cancer SKOV3 P53+/+), 700 nM. In data set [7] (ovary cancer SKOV3 P53−/−), this compound returned an IC50 of 1100 nM.

On to `CCCN(CC#CC1=C[C@@H]2C[C@@]3(OC(=O)C=C13)[C@H]1CCCCN21)CCC` [INVS-MG-152A], for which the half-inhibitory concentration (IC50) in data set [2] (Homo sapiens) was 80 nM; in data set [3] (Homo sapiens) it was 70 nM; in data set [4] (setting [9]), 900 nM; in data set [5] (setting [10]), 1900 nM; in data set [6] (setting [11]), below 600 nM; in data set [7] (setting [12]), 700 nM.

Turning to `O=C1C=C2C(C#Cc3ccc(OC(F)(F)F)cc3)=C[C@@H]3C[C@@]2(O1)[C@H]1CCCCN31` [INVS-MG-166B], the IC50 in data set [2] (Homo sapiens) is above 300 nM; in data set [3] (Homo sapiens), above 300 nM; in data set [4] (setting [9]) it was 2400 nM; in data set [5] (setting [10]), 3800 nM; in data set [6] (setting [11]), 3500 nM; in data set [7] (setting [12]) it was 3200 nM.

Turning to `O=C1C=C2C=C[C@@H]3C[C@@]2(O1)[C@H]1CCCCN31` [Securinine], the seizures in mice entry in data set [8] is recorded as “causes seizures”.
